Like-named read-outs stand apart in the source and are kept apart here.
Columns and labels:
[1] = test system: HCV genotype 1b replicon; assay: HCV replicon assay, genotype 1b replicon EC50; format: cell-based, Hepatitis C virus; settings: Hepatitis C virus, genotype 1b replicon, read-out: EC50 [gt-1b]
Outline: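 Readout was replicon RNA copy number, by 32P-probe protection or TaqMan normalized to cellular cyclophilin A RNA, or luciferase activity for luciferase:Neo^r fusion lines. Cells were exposed to serially diluted compound for 24-48 hours without G418, then washed and lysed. EC50 derived from four-parameter fit relative to DMSO.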

[2] = molecular target: HCV NS3/4A protease genotype 1b (Hepatitis C virus genotype 1b, UniProt P26663); assay: HCV NS3/4A protease time-resolved fluorescence (TRF) assay, Ki against genotype 1b; format: biochemical; settings: IC50 [gt-1b] (nM), NS3/4A genotype 1b, enzyme 0.2 nM
Outline: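 Time-resolved fluorescence readout of NS3/4A cleavage of 25 nM europium-labelled peptide over 2.5 h at room temperature, enzyme levels set for signal/background 10–30 (0.2, 0.4, 0.025 nM for 1b, A156T, 3a). Ki by IC50=Ki(1+[S]/KM).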

| SMILES | EC50 [1] [pM] | IC50 [2] [nM] | EC50 ([1]; K+ salt) [pM] | IC50 ([2]; K+ salt) [nM] |
| --- | --- | --- | --- | --- |
| Cc1nc2ccccc2c2c1O[C@]1(CC2)C[C@H]2C(=O)N[C@]3(C(=O)NS(=O)(=O)C4(C)CC4)C[C@H]3/C=C\CCCCC[C@H](NC(=O)OC(C)C3CC3)C(=O)N2C1 (stereo partly drawn) [Example 126, 1-cyclopropylethyl [(2R,6S,12Z,13aS,14aR,16aS)-5′-methyl-14a-{[(1-methylcyclopropyl)sulfonyl]carbamoyl}-5,16-dioxo-1,1′,2′,5,6,7,8,9,10,11,13a,14,14a,15,16,16a-hexadecahydrospiro[cyclopropa[e]pyrrolo[1,2-a][1,4]diazacyclopentadecine-2,3′-pyrano[2,3-c]quinolin]-6-yl]carbamate] | 2610 | 0.029 | – | – |
| Cc1nc2ccccc2c2c1O[C@]1(CC2)C[C@H]2C(=O)N[C@]3(C(=O)NS(=O)(=O)C4(C)CC4)C[C@H]3/C=C\CCCCC[C@H](NC(=O)OCCF)C(=O)N2C1 [Example 127, 2-fluoroethyl [(2R,6S,12Z,13aS,14aR,16aS)-5′-methyl-14a-{[(1-methylcyclopropyl)sulfonyl]carbamoyl}-5,16-dioxo-1,1′,2′,5,6,7,8,9,10,11,13a,14,14a,15,16,16a-hexadecahydrospiro[cyclopropa[e]pyrrolo[1,2-a][1,4]diazacyclopentadecine-2,3′-pyrano[2,3-c]quinolin]-6-yl]carbamate] | 394 | 0.031 | – | – |
| COCCOC(=O)N[C@H]1CCCCC/C=C\[C@@H]2C[C@@]2(C(=O)NS(=O)(=O)C2(C)CC2)NC(=O)[C@@H]2C[C@]3(CCc4c(c(C)nc5ccccc45)O3)CN2C1=O [Example 128, 2-methoxyethyl [(2R,6S,12Z,13aS,14aR,16aS)-5′-methyl-14a-{[(1-methylcyclopropyl)sulfonyl]carbamoyl}-5,16-dioxo-1,1′,2′,5,6,7,8,9,10,11,13a,14,14a,15,16,16a-hexadecahydrospiro[cyclopropa[e]pyrrolo[1,2-a][1,4]diazacyclopentadecine-2,3′-pyrano[2,3-c]quinolin]-6-yl]carbamate] | 2010 | 0.044 | – | – |
| Cc1nc2ccccc2c2c1O[C@]1(CC2)C[C@H]2C(=O)N[C@]3(C(=O)NS(=O)(=O)C4(C)CC4)C[C@H]3/C=C\CCCCC[C@H](NC(=O)OCC(F)(F)F)C(=O)N2C1 [Example 129, 2,2,2-trifluoroethyl [(2R,6S,12Z,13aS,14aR,16aS)-5′-methyl-14a-{[(1-methylcyclopropyl)sulfonyl]carbamoyl}-5,16-dioxo-1,1′,2′,5,6,7,8,9,10,11,13a,14,14a,15,16,16a-hexadecahydrospiro[cyclopropa[e]pyrrolo[1,2-a][1,4]diazacyclopentadecine-2,3′-pyrano[2,3-c]quinolin]-6-yl]carbamate] | 2110 | 0.011 | – | – |
| Cc1nc2ccccc2c2c1O[C@]1(CC2)C[C@H]2C(=O)N[C@]3(C(=O)NS(=O)(=O)C4(C)CC4)C[C@H]3/C=C\CCCCC[C@H](NC(=O)OCC(C)(C)C)C(=O)N2C1 [Example 130, 2,2-dimethylpropyl [(2R,6S,12Z,13aS,14aR,16aS)-5′-methyl-14a-{[(1-methylcyclopropyl)sulfonyl]carbamoyl}-5,16-dioxo-1,1′,2′,5,6,7,8,9,10,11,13a,14,14a,15,16,16a-hexadecahydrospiro[cyclopropa[e]pyrrolo[1,2-a][1,4]diazacyclopentadecine-2,3′-pyrano[2,3-c]quinolin]-6-yl]carbamate] | 1930 | 0.01 | – | – |
| Cc1nc2ccccc2c2c1O[C@]1(CC2)C[C@H]2C(=O)N[C@]3(C(=O)NS(=O)(=O)C4(C)CC4)C[C@H]3/C=C\CCCCC[C@H](NC(=O)OC3(C4CC4)CC3)C(=O)N2C1 [Example 131, 1,1′-bi(cyclopropyl)-1-yl [(2R,6S,12Z,13aS,14aR,16aS)-5′-methyl-14a-{[(1-methylcyclopropyl)sulfonyl]carbamoyl}-5,16-dioxo-1,1′,2′,5,6,7,8,9,10,11,13a,14,14a,15,16,16a-hexadecahydrospiro[cyclopropa[e]pyrrolo[1,2-a][1,4]diazacyclopentadecine-2,3′-pyrano[2,3-c]quinolin]-6-yl]carbamate] | 1280 | 0.003 | – | – |
| COc1ccc2c3c(c(C4CC4)nc2c1)O[C@]1(CC3)C[C@H]2C(=O)N[C@]3(C(=O)NS(=O)(=O)C4(C)CC4)C[C@H]3/C=C\CCCCC[C@H](NC(=O)NC(C)(C)C)C(=O)N2C1 [Example 132, (2R,6S,12Z,13aS,14aR,16aS)-6-[(tert-butylcarbamoyl)amino]-5′-cyclopropyl-8′-methoxy-N-[(1-methylcyclopropyl)sulfonyl]-5,16-dioxo-1,1′,2′,6,7,8,9,10,11,13a,14,15,16,16a-tetradecahydrospiro[cyclopropa[e]pyrrolo[1,2-a][1,4]diazacyclopentadecine-2,3′-pyrano[2,3-c]quinoline]-14a(5H)-carboxamide] | 1410 | 0.002 | – | – |
| COc1ccc2c3c(c(C4CC4)nc2c1)O[C@]1(CC3)C[C@H]2C(=O)N[C@]3(C(=O)NS(=O)(=O)C4(C)CC4)C[C@H]3/C=C\CCCCC[C@H](NC(=O)NC3CCCC3)C(=O)N2C1 [Example 133, (2R,6S,12Z,13aS,14aR,16aS)-6-[(cyclopentylcarbamoyl)amino]-5′-cyclopropyl-8′-methoxy-N-[(1-methylcyclopropyl)sulfonyl]-5,16-dioxo-1,1′,2′,6,7,8,9,10,11,13a,14,15,16,16a-tetradecahydrospiro[cyclopropa[e]pyrrolo[1,2-a][1,4]diazacyclopentadecine-2,3′-pyrano[2,3-c]quinoline]-14a(5H)-carboxamide] | 17400 | 0.007 | – | – |
| COc1ccc2c3c(c(C4CC4)nc2c1)O[C@]1(CC3)C[C@H]2C(=O)N[C@]3(C(=O)NS(=O)(=O)C4(C)CC4)C[C@H]3/C=C\CCCCC[C@H](NC(=O)OC3CCCC3)C(=O)N2C1 [Example 134, cyclopentyl [(2R,6S,12Z,13aS,14aR,16aS)-5′-cyclopropyl-8′-methoxy-14a-{[(1-methylcyclopropyl)sulfonyl]carbamoyl}-5,16-dioxo-1,1′,2′,5,6,7,8,9,10,11,13a,14,14a,15,16,16a-hexadecahydrospiro[cyclopropa[e]pyrrolo[1,2-a][1,4]diazacyclopentadecine-2,3′-pyrano[2,3-c]quinolin]-6-yl]carbamate] | – | – | 2840 | 0.014 |
| COc1ccc2c3c(c(C4CC4)nc2c1)O[C@]1(CC3)C[C@H]2C(=O)N[C@]3(C(=O)NS(=O)(=O)C4(C)CC4)C[C@H]3/C=C\CCCCC[C@H](NC(=O)OC3(C)CC3)C(=O)N2C1 [Example 135, 1-methylcyclopropyl [(2R,6S,12Z,13aS,14aR,16aS)-5′-cyclopropyl-8′-methoxy-14a-{[(1-methylcyclopropyl)sulfonyl]carbamoyl}-5,16-dioxo-1,1′,2′,5,6,7,8,9,10,11,13a,14,14a,15,16,16a-hexadecahydrospiro[cyclopropa[e]pyrrolo[1,2-a][1,4]diazacyclopentadecine-2,3′-pyrano[2,3-c]quinolin]-6-yl]carbamate] | – | – | 2820 | 0.037 |
| COc1ccc2c3c(c(C4CC4)nc2c1)O[C@]1(CC3)C[C@H]2C(=O)N[C@]3(C(=O)NS(=O)(=O)C4(C)CC4)C[C@H]3/C=C\CCCCC[C@H](NC(=O)OCC(C)C)C(=O)N2C1 [Example 136, 2-methylpropyl [(2R,6S,12Z,13aS,14aR,16aS)-5′-cyclopropyl-8′-methoxy-14a-{[(1-methylcyclopropyl)sulfonyl]carbamoyl}-5,16-dioxo-1,1′,2′,5,6,7,8,9,10,11,13a,14,14a,15,16,16a-hexadecahydrospiro[cyclopropa[e]pyrrolo[1,2-a][1,4]diazacyclopentadecine-2,3′-pyrano[2,3-c]quinolin]-6-yl]carbamate] | – | – | 2120 | 0.019 |
| COc1ccc2c3c(c(C4CC4)nc2c1)O[C@]1(CC3)C[C@H]2C(=O)N[C@]3(C(=O)NS(=O)(=O)C4(C)CC4)C[C@H]3/C=C\CCCCC[C@H](NC(=O)OC(C)C)C(=O)N2C1 [Example 137, propan-2-yl [(2R,6S,12Z,13aS,14aR,16aS)-5′-cyclopropyl-8′-methoxy-14a-{[(1-methylcyclopropyl)sulfonyl]carbamoyl}-5,16-dioxo-1,1′,2′,5,6,7,8,9,10,11,13a,14,14a,15,16,16a-hexadecahydrospiro[cyclopropa[e]pyrrolo[1,2-a][1,4]diazacyclopentadecine-2,3′-pyrano[2,3-c]quinolin]-6-yl]carbamate] | 1710 | 0.025 | – | – |
| CCOC(=O)N[C@H]1CCCCC/C=C\[C@@H]2C[C@@]2(C(=O)NS(=O)(=O)C2(C)CC2)NC(=O)[C@@H]2C[C@]3(CCc4c(c(C5CC5)nc5cc(OC)ccc45)O3)CN2C1=O [Example 138, ethyl [(2R,6S,12Z,13aS,14aR,16aS)-5′-cyclopropyl-8′-methoxy-14a-{[(1-methylcyclopropyl)sulfonyl]carbamoyl}-5,16-dioxo-1,1′,2′,5,6,7,8,9,10,11,13a,14,14a,15,16,16a-hexadecahydrospiro[cyclopropa[e]pyrrolo[1,2-a][1,4]diazacyclopentadecine-2,3′-pyrano[2,3-c]quinolin]-6-yl]carbamate] | 2510 | 0.043 | – | – |

Reference: patent publication US8987195B2 (priority 2012, dated 2015)
